We go through 13 compounds from patent US9321718B2 (CHROMA THERAPEUTICS LTD., priority 2010, dated 2016).

Some results are limits rather than exact numbers.

This experiment deals with T1, human recombinant his-tagged HSP90α (Homo sapiens, UniProt P07900).
T1 construct: purchased Prospec Technogene #HSP90
Kind of experiment: HSP90 enzyme assay (HTRF, competition with biotinylated Geldanamycin). It is filed as binding. Conditions: IC50 range; read-out: Enzyme Assay. From the text:
An HTRF (homogeneous time resolved fluorescence) assay is used to measure the interaction of the compounds with HSP90. The assay measures binding of biotinylated Geldanamycin (bio-GM; Biomol, #EI-341, lot: A9199a) to human recombinant his-tagged HSP90α (HSP90; Prospec Technogene, #HSP90, lot: 260HSP9001). A signal is generated by fluorescence resonance energy transfer from an Europium-cryptate labeled anti-his antibody (anti-his-K; Cisbio International, #61HISKLA, lot: 33V) via the HSP90-GM-biotin complex to a fluorescence acceptor (allophycocyanin) linked to streptavidin (SA-XL; Cisbio International, #610SAXLB, lot: 089).
Unlabeled GM or compounds compete with the bio-GM for binding to HSP90 resulting in reduced fluorescence energy transfer/assay signal.
A preformed (1 hour incubation) complex of HSP90 with the anti-his-K is added to the compound solution in a 384 well microplate (Corning, #3710) and incubated for 15 minutes. A preformed (1 hour incubation) complex of bio-GM with the SA-XL is added to the wells and incubated for 20 hours. All incubations are performed at room temperature. The final assay volume is 50 μl/well. The final concentrations in the assay are: 50 mM Hepes pH 7.3, 50 mM NaCl, 100 mM KF, 1 mM EDTA, 1 mM DTT, 0.1% Triton-X-100, […] HSP90, 40 nM SA-XL, 40 nM bio-GM. Test compounds are dissolved in DMSO, prediluted in assay buffer and tested at a final concentration between 5000 nM and 0.3 nM. The resulting DMSO concentration is 0.5% and included in all controls. High controls are without test compounds, low controls without test compounds, without HSP90 and without bio-GM. As a reference inhibitor unlabeled GM is used in the same concentrations as the test compounds.
Inhibition is calculated compared to the assay controls using an Excel spreadsheet (Microsoft). IC50 values are calculated by non-linear least squares fitting to the standard dose-response model using GraphPad Prism (GraphPad Software Inc).
In the case of `CC(C)c1cc(C(=O)N2CCC(N[C@H](C(=O)OC(C)(C)C)C3CCCCC3)CC2)c(O)cc1O` [Example 15, tert-butyl (2S)-cyclohexyl[(1-{[2,4-dihydroxy-5-(propan-2-yl)phenyl]carbonyl}piperidin-4-yl)amino]ethanoate], the IC50 is 100 to 1000 nM. As for `CC(C)c1cc(C(=O)N2CCC(CN[C@H](C(=O)OC(C)(C)C)C3CCCCC3)CC2)c(O)cc1O` [Example 31, tert-butyl (2S)-cyclohexyl{[(1-{[2,4-dihydroxy-5-(propan-2-yl)phenyl]carbonyl}piperidin-4-yl)methyl]amino}ethanoate], the figure is 100 to 1000 nM; as for `CC(C)c1cc(C(=O)N2CCC(CCN[C@@H](Cc3ccccc3)C(=O)OC(C)(C)C)CC2)c(O)cc1O` [Example 41, tert-butyl N-[2-(1-{[2,4-dihydroxy-5-(propan-2-yl)phenyl]carbonyl}piperidin-4-yl)ethyl]-L-phenylalaninate], less than 100 nM.

As to `CC(C)c1cc(C(=O)N2CCC(CCN[C@@H](C)C(=O)OC(C)(C)C)CC2)c(O)cc1O` [Example 43, tert-butyl N-[2-(1-{[2,4-dihydroxy-5-(propan-2-yl)phenyl]carbonyl}piperidin-4-yl)ethyl]-L-alaninate], the IC50 was less than 100 nM. As for `CC(C)c1cc(C(=O)N2CCC(CCN[C@H](C(=O)OC(C)(C)C)C3CCCCC3)CC2)c(O)cc1O` [Example 49, tert-butyl (2S)-cyclohexyl{[2-(1-{[2,4-dihydroxy-5-(propan-2-yl)phenyl]carbonyl}piperidin-4-yl)ethyl]amino}ethanoate], the figure is less than 100 nM; as for `CC(C)c1cc(C(=O)N2CCC(CCN[C@H](C(=O)OC(C)(C)C)c3ccccc3)CC2)c(O)cc1O` [Example 50, tert-butyl (2S)-{[2-(1-{[2,4-dihydroxy-5-(propan-2-yl)phenyl]carbonyl}piperidin-4-yl)ethyl]amino}(phenyl)ethanoate], less than 100 nM. Take `CC(C)c1cc(C(=O)N2CCC(CCN[C@@H](COC(C)(C)C)C(=O)OC(C)(C)C)CC2)c(O)cc1O` [Example 53, tert-butyl O-tert-butyl-N-[2-(1-{[2,4-dihydroxy-5-(propan-2-yl)phenyl]carbonyl}piperidin-4-yl)ethyl]-L-serinate]: the IC50 is less than 100 nM. As for `CCOC(=O)[C@H](C)NCc1ccc2c(c1)CN(C(=O)c1cc(C(C)C)c(O)cc1O)C2` [Example 57, ethyl N-[(2-{[2,4-dihydroxy-5-(propan-2-yl)phenyl]carbonyl}-2,3-dihydro-1H-isoindol-5-yl)methyl]-L-alaninate], the figure is less than 100 nM. In the case of `CC(C)OC(=O)[C@H](C)NCc1ccc2c(c1)CN(C(=O)c1cc(C(C)C)c(O)cc1O)C2` [Example 58, propan-2-yl N-[(2-{[2,4-dihydroxy-5-(propan-2-yl)phenyl]carbonyl}-2,3-dihydro-1H-isoindol-5-yl)methyl]-L-alaninate], the IC50 was less than 100 nM. The value for `CC(C)C[C@H](NCc1ccc(CN(C)C(=O)c2cc(C(C)C)c(O)cc2O)cc1)C(=O)O` [Example 77, N-(4-{[{[2,4-dihydroxy-5-(propan-2-yl)phenyl]carbonyl}(methyl)amino]methyl}benzyl)-L-leucine] was less than 100 nM; that for `CC(C)C[C@H](NCc1ccc2c(c1)CN(C(=O)c1cc(C(C)C)c(O)cc1O)C2)C(=O)O` [Example 78, N-[(2-{[2,4-dihydroxy-5-(propan-2-yl)phenyl]carbonyl}-2,3-dihydro-1H-isoindol-5-yl)methyl]-L-leucine] was less than 100 nM. As for `CC(C)c1cc(C(=O)N2Cc3ccc(CNC(C)(C)C(=O)O)cc3C2)c(O)cc1O` [Example 79, N-[(2-{[2,4-dihydroxy-5-(propan-2-yl)phenyl]carbonyl}-2,3-dihydro-1H-isoindol-5-yl)methyl]-2-methylalanine], the IC50 is less than 100 nM. As for `CC(C)C[C@H](NCCCc1ccc2c(c1)CN(C(=O)c1cc(C(C)C)c(O)cc1O)C2)C(=O)O` [Example 80, N-[3-(2-{[2,4-dihydroxy-5-(propan-2-yl)phenyl]carbonyl}-2,3-dihydro-1H-isoindol-5-yl)propyl]-L-leucine], the figure is less than 100 nM.
